Source: the supplement of paper PMC10307832

Assays:
Experiment in all cases: relative viability (nuclei count vs DMSO), 5 days (fraction); higher = more cells survive
201T = test system: 201T
Outline: (§1)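 Lung cancer cell lines in 1536-well plates were dosed by pin tool the day after seeding, either with one drug alone or with a fixed anchor-drug dose plus five library-drug doses (not always all listed) in √10 steps. After 5 days, cells were fixed and their nuclei stained in one step (final 0.05% Triton X-100, 1% formaldehyde, 1 ug/ml Hoechst), then counted on 4× images. Relative viability is the nuclei count in treated wells divided by that in vehicle wells. Values are medians of duplicate plates.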

COR-L 105 = test system: COR-L 105
Outline: as §1

ChaGo-K-1 = test system: ChaGo-K-1
Outline: as §1

EKVX = test system: EKVX
Outline: as §1

H3255 = test system: H3255
Outline: as §1

HARA = test system: HARA
Outline: as §1

HCC-827 = test system: HCC-827
Outline: as §1

HOP-62 = test system: HOP-62
Outline: as §1

LCLC-103H = test system: LCLC-103H
Outline: as §1

LOU-NH91 = test system: LOU-NH91
Outline: as §1

NCI-H1975 = test system: NCI-H1975
Outline: as §1

NCI-H2126 = test system: NCI-H2126
Outline: as §1

NCI-H2228 = test system: NCI-H2228
Outline: as §1

NCI-H23 = test system: NCI-H23
Outline: as §1

NCI-H2405 = test system: NCI-H2405
Outline: as §1

NCI-H3122 = test system: NCI-H3122
Outline: as §1

NCI-H650 = test system: NCI-H650
Outline: as §1

NCI-H661 = test system: NCI-H661
Outline: as §1

NCI-H727 = test system: NCI-H727
Outline: as §1

PC-3 [JPC-3] = test system: PC-3 [JPC-3]
Outline: as §1

SK-LU-1 = test system: SK-LU-1
Outline: as §1

SW 900 = test system: SW 900
Outline: as §1

CCNC(=O)c1noc(-c2cc(C(C)C)c(O)cc2O)c1-c1ccc(CN2CCOCC2)cc1 [Luminespib] + CC(=O)c1c(C)c2cnc(Nc3ccc(N4CCNCC4)cn3)nc2n(C2CCCC2)c1=O [Palbociclib] (partner 0.5 µM)
relative viability (201T; first compound 0.002 µM): 0.363
relative viability (201T; first compound 0.006325 µM): 0.366
relative viability (201T; first compound 0.02 µM): 0.309
relative viability (201T; first compound 0.06325 µM): 0.352
relative viability (201T; first compound 0.2 µM): 0.356
relative viability (COR-L 105; first compound 0.002 µM): 0.412
relative viability (COR-L 105; first compound 0.006325 µM): 0.445
relative viability (COR-L 105; first compound 0.02 µM): 0.366
relative viability (COR-L 105; first compound 0.06325 µM): 0.265
relative viability (COR-L 105; first compound 0.2 µM): 0.289
relative viability (ChaGo-K-1; first compound 0.002 µM): 0.813
relative viability (ChaGo-K-1; first compound 0.006325 µM): 0.888
relative viability (ChaGo-K-1; first compound 0.02 µM): 0.963
relative viability (ChaGo-K-1; first compound 0.06325 µM): 0.925
relative viability (ChaGo-K-1; first compound 0.2 µM): 0.82
relative viability (EKVX; first compound 0.002 µM): 0.431
relative viability (EKVX; first compound 0.006325 µM): 0.364
relative viability (EKVX; first compound 0.02 µM): 0.184
relative viability (EKVX; first compound 0.06325 µM): 0.342
relative viability (EKVX; first compound 0.2 µM): 0.138
relative viability (H3255; first compound 0.002 µM): 0.325
relative viability (H3255; first compound 0.006325 µM): 0.304
relative viability (H3255; first compound 0.02 µM): 0.308
relative viability (H3255; first compound 0.06325 µM): 0.281
relative viability (H3255; first compound 0.2 µM): 0.296
relative viability (HARA; first compound 0.002 µM): 0.221
relative viability (HARA; first compound 0.006325 µM): 0.221
relative viability (HARA; first compound 0.02 µM): 0.213
relative viability (HARA; first compound 0.06325 µM): 0.253
relative viability (HARA; first compound 0.2 µM): 0.11
relative viability (HCC-827; first compound 0.002 µM): 0.492
relative viability (HCC-827; first compound 0.006325 µM): 0.473
relative viability (HCC-827; first compound 0.02 µM): 0.326
relative viability (HCC-827; first compound 0.06325 µM): 0.178
relative viability (HCC-827; first compound 0.2 µM): 0.148
relative viability (HOP-62; first compound 0.002 µM): 0.451
relative viability (HOP-62; first compound 0.006325 µM): 0.449
relative viability (HOP-62; first compound 0.02 µM): 0.594
relative viability (HOP-62; first compound 0.06325 µM): 0.384
relative viability (HOP-62; first compound 0.2 µM): 0.235
relative viability (LCLC-103H; first compound 0.002 µM): 0.481
relative viability (LCLC-103H; first compound 0.006325 µM): 0.454
relative viability (LCLC-103H; first compound 0.02 µM): 0.447
relative viability (LCLC-103H; first compound 0.06325 µM): 0.469
relative viability (LCLC-103H; first compound 0.2 µM): 0.468
relative viability (LOU-NH91; first compound 0.002 µM): 0.557
relative viability (LOU-NH91; first compound 0.006325 µM): 0.533
relative viability (LOU-NH91; first compound 0.02 µM): 0.503
relative viability (LOU-NH91; first compound 0.06325 µM): 0.375
relative viability (LOU-NH91; first compound 0.2 µM): 0.354
relative viability (NCI-H1975; first compound 0.002 µM): 0.614
relative viability (NCI-H1975; first compound 0.006325 µM): 0.469
relative viability (NCI-H1975; first compound 0.02 µM): 0.363
relative viability (NCI-H1975; first compound 0.06325 µM): 0.103
relative viability (NCI-H1975; first compound 0.2 µM): 0.122
relative viability (NCI-H2126; first compound 0.002 µM): 0.337
relative viability (NCI-H2126; first compound 0.006325 µM): 0.325
relative viability (NCI-H2126; first compound 0.06325 µM): 0.351
relative viability (NCI-H2126; first compound 0.2 µM): 0.393
relative viability (NCI-H2228; first compound 0.002 µM): 0.752
relative viability (NCI-H2228; first compound 0.006325 µM): 0.616
relative viability (NCI-H2228; first compound 0.02 µM): 0.121
relative viability (NCI-H2228; first compound 0.06325 µM): 0.119
relative viability (NCI-H2228; first compound 0.2 µM): 0.104
relative viability (NCI-H23; first compound 0.002 µM): 0.567
relative viability (NCI-H23; first compound 0.006325 µM): 0.582
relative viability (NCI-H23; first compound 0.02 µM): 0.376
relative viability (NCI-H23; first compound 0.06325 µM): 0.154
relative viability (NCI-H23; first compound 0.2 µM): 0.14
relative viability (NCI-H2405; first compound 0.002 µM): 0.557
relative viability (NCI-H2405; first compound 0.02 µM): 0.417
relative viability (NCI-H2405; first compound 0.06325 µM): 0.172
relative viability (NCI-H2405; first compound 0.2 µM): 0.164
relative viability (NCI-H3122; first compound 0.002 µM): 0.173
relative viability (NCI-H3122; first compound 0.006325 µM): 0.233
relative viability (NCI-H3122; first compound 0.02 µM): 0.173
relative viability (NCI-H3122; first compound 0.06325 µM): 0.197
relative viability (NCI-H3122; first compound 0.2 µM): 0.196
relative viability (NCI-H650; first compound 0.002 µM): 0.39
relative viability (NCI-H650; first compound 0.006325 µM): 0.283
relative viability (NCI-H650; first compound 0.02 µM): 0.277
relative viability (NCI-H650; first compound 0.06325 µM): 0.181
relative viability (NCI-H650; first compound 0.2 µM): 0.0632
relative viability (NCI-H661; first compound 0.002 µM): 0.427
relative viability (NCI-H661; first compound 0.006325 µM): 0.396
relative viability (NCI-H661; first compound 0.02 µM): 0.315
relative viability (NCI-H661; first compound 0.06325 µM): 0.309
relative viability (NCI-H661; first compound 0.2 µM): 0.322
relative viability (NCI-H727; first compound 0.002 µM): 0.668
relative viability (NCI-H727; first compound 0.006325 µM): 0.665
relative viability (NCI-H727; first compound 0.02 µM): 0.631
relative viability (NCI-H727; first compound 0.06325 µM): 0.45
relative viability (NCI-H727; first compound 0.2 µM): 0.424
relative viability (PC-3 [JPC-3]; first compound 0.002 µM): 0.558
relative viability (PC-3 [JPC-3]; first compound 0.006325 µM): 0.544
relative viability (PC-3 [JPC-3]; first compound 0.02 µM): 0.518
relative viability (PC-3 [JPC-3]; first compound 0.06325 µM): 0.473
relative viability (PC-3 [JPC-3]; first compound 0.2 µM): 0.436
relative viability (SK-LU-1; first compound 0.002 µM): 0.456
relative viability (SK-LU-1; first compound 0.006325 µM): 0.318
relative viability (SK-LU-1; first compound 0.02 µM): 0.294
relative viability (SK-LU-1; first compound 0.06325 µM): 0.186
relative viability (SK-LU-1; first compound 0.2 µM): 0.194
relative viability (SW 900; first compound 0.002 µM): 0.577
relative viability (SW 900; first compound 0.006325 µM): 0.566
relative viability (SW 900; first compound 0.02 µM): 0.549
relative viability (SW 900; first compound 0.06325 µM): 0.144
relative viability (SW 900; first compound 0.2 µM): 0.134
